The target of experiment [1] is T1, IRAK4 (Homo sapiens (Human), UniProt Q9NWZ3). In words: Biochemical Z'-Lyte FRET assay for IRAK4 kinase inhibition. Particulars: 2 nM enzyme, 1 mM ATP, 2 μM substrate. The method, then: Biochemical Assay for IRAK4 Kinase Inhibition.
A Z′-Lyte assay based on a fluorescence resonance energy transfer (FRET) readout was developed for measuring IRAK4-dependent phosphorylation of a FRET-peptide substrate as described by Thermo Fisher Scientific (Grand Island, N.Y.). At a starting concentration of 1.5 mM, the identified compounds were serially diluted with 100% dimethyl sulfoxide (DMSO) in 3-fold increments, into Greiner bio-one 96-well plates (cat. #: 650201, Greiner bio-one, Monroe, N.C.). Compounds were then transferred to intermediate Greiner bio-one 96-well plates and diluted 10-fold with Kinase assay buffer (25 mM HEPES, pH 7.5, 10 mM MgCl2, 10 mM MnCl2, 1 mM EGTA, and 0.01% Brij-35, 2 mM DTT). Three μL of the serially diluted compounds were then transferred in duplicate to low-volume 384-well black proxiplates (cat. #: 6008269; Perkin Elmer, Akron, Ohio), to give duplicate twelve-point concentration curves. Six μl of a 2.5× solution of IRAK4 enzyme (cat #: 40064, BPS Bioscience, San Diego, Calif.) in kinase buffer was added to each well, followed by a 10 minutes pre-incubation step. Reactions were initiated by adding 6 μl of a 2.5× substrate mix of ATP and Z′-Lyte Ser/Thr 7 peptide (cat. #: PV3180, Thermo Fisher Scientific, Grand Island, N.Y.) and proceeded at room temperature for 1 hour. The final concentration of key reagents in the 15 uL kinase reactions were 2 μM substrate, 2 nM enzyme, and 1 mM ATP, with dose responses starting at 30 μM compound. At the end of the kinase reactions, 5 μl of developing solution (as instructed in for cat. #: PV3180, Thermo Fisher Scientific, Grand Island, N.Y.) was added to each well and incubated at room temperature for 1 hour. All wells were read on an Envision 2105 Multilabel fluorescence plate reader (Perkin Elmer, Waltham, Mass.) at 400 nm excitation and 460 nm/530 nm emission. Plus and minus 100% inhibition controls were used to calculate percent inhibition and IC50 curves were generated using Graphpad Prism (La Jolla, Calif.).

Experiment [2] has as its target T1, IRAK4. Put plainly: Western blot assay for assessing degradation of IRAK4 in MCF7 cells. In kind it is cell-based. To be noted: Table 5, IRAK4 degradation, 24 hour incubation, read-out: IRAK4 DC50. As for the experimental part:
Western Blot Assay for Assessing Degradation of IRAK4.
MCF7 cells, purchased from ATCC (Manassas, Va.), were used at a passage range of 2-19. Cells were seeded at 50% confluency in 96-well plates at 180 μl/well in cell media (Dulbecco's Modified Eagle medium/nutrient F-12 Ham-10% Fetal Bovine Serum) and incubated overnight. The next morning, compounds were serially diluted and added (20 μl into 180 μl media) at a final DMSO concentration of 0.1%. Cells were rinsed with cell media and replaced with compounds in media, followed by incubation overnight. After a 24 hour incubation with compound, cell were harvested (90-100% confluent at harvest). Cells were then washed once with 100 μl of Dulbecco's hosphate-buffered saline and then lysed with 40 μl of lysis buffer (1×RIPA+HALT protease inhibitor+HALT phosphatase inhibitor) on ice for 10 minutes. Lysates were then cleaned by filtration in 1.2 µm filter plates followed by western blotting. For each sample, 30 μl of lysate were added to 10 μl of 4×LDS sample buffer, then denatured at 95° C. for 5 minutes in the thermal cycler and placed on ice. Fifteen μL of each sample were then loaded on 4-15% Tris/Glycine gels and run for 25 minutes at 250 (constant) volts in 1× Tris/Glycine buffer. Protein was transferred from gels to nitrocellulose using a BioRad Turbo dry-transfer unit with the Turbo/midi default program. All blots were rinsed with ddH2O and blocked for 1 hour at room temperature in 5% bovine serum albumin (BSA) in tris-buffered saline-Tween 20 (TBS-T) (0.1%) on rocker. Blots were exposed to primary antibody in 5% BSA in TBS-T (0.1%) overnight at 4° C. on rocker. Primary antibodies, diluted 1:1000 in […], were as follows: anti-IRAK4 (cat. #: ab119942, Abcam, Cambridge, Mass.), anti-IRAK1 (cat. #: CST 4504S, Cell Signaling Technology, Danvers, Mass.), and anti-Beta-actin (Cat. #: ab8227, Abcam, Cambridge, Mass.). Blots were then washed with TBS-T (0.1%) three times for 5 minutes on a rocker at room temperature. Secondary antibody (1:18,000 anti-rabbit-HRP and/or anti-mouse-HRP in 5% BSA in TBST (0.1%) was then added, and blots incubated at room temperature rocker for 1 hour. Blots were washed 3 times in TBS-T (0.1%) for 5 minutes at room temperature on the rocker. Signal was developed with Femto Max substrate for 5 minutes and blots read on a ChemiDoc. Percent degradation was assessed by comparing IRAK4 signal in compound vs. DMSO treated lysates.
A general note: In western blotting, separated proteins are transferred to a membrane and probed.

The IC50 is the concentration at which inhibition is half-maximal. For orientation: DC50 means the concentration giving 50% degradation.

Some results are limits rather than exact numbers.

T1 sequence (Q9NWZ3 whole entry): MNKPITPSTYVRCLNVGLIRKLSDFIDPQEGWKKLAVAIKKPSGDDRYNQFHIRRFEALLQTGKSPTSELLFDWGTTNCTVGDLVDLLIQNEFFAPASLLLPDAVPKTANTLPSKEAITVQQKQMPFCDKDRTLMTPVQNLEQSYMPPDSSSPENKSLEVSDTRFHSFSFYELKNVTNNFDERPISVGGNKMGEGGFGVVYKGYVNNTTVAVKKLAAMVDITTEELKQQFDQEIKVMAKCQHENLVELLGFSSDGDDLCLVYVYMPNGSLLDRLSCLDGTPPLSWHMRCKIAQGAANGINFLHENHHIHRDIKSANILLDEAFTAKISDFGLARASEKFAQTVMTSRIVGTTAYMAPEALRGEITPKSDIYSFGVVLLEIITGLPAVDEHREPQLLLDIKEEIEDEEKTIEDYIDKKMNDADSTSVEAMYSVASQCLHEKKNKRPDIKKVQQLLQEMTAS

Regarding `Cc1ccc(-n2nc(N3CCN(CCOCCOCCOCCOCC(=O)N[C@H](C(=O)N4C[C@H](O)C[C@H]4C(=O)NCc4ccc(-c5scnc5C)cc4)C(C)(C)C)CC3)cc2NC(=O)c2cnn3cccnc23)nc1` [compound 28, N-(3-(4-((S)-16-((2S,4R)-4-hydroxy-2-((4-(4-methylthiazol-5-yl)benzyl)carbamoyl)pyrrolidine-1-carbonyl)-17,17-dimethyl-14-oxo-3,6,9,12-tetraoxa-15-azapentadecyl)piperazin-1-yl)-1-(5-methylpyridin-2-yl)-1H-pyrazol-5-yl)pyrazolo[1,5-a]pyrimidine-3-carboxamide], the concentration for half-maximal inhibition (IC50) on IRAK4 [1] lay in the range of 0.3 to 1 µM. In addition, the 50% degradation concentration (DC50) on IRAK4 [2] is not below 1 µM.

Regarding `N#Cc1ccc2ncnc(N[C@H]3CC[C@H](N4CCN(CCOc5ccc6c(c5)C(=O)N(C5CCC(=O)NC5=O)C6=O)CC4)CC3)c2c1` (stereo partly drawn) [compound 29], the 50% inhibitory concentration (IC50) against IRAK4 [1] lay in the range of 0.3 to 1 µM. The DC50 on IRAK4 [2] is not below 1 µM.

Turning to `N#Cc1ccc2ncnc(N[C@H]3CC[C@H](N4CCN(CCOCCOc5ccc6c(c5)C(=O)N(C5CCC(=O)NC5=O)C6=O)CC4)CC3)c2c1` (stereo partly drawn) [compound 30], the IC50 against IRAK4 [1] is 0.3 to 1 µM. The DC50 on IRAK4 [2] was not below 1 µM.

Turning to `N#Cc1ccc2ncnc(N[C@H]3CC[C@H](N4CCN(CCOCCOCCOc5ccc6c(c5)C(=O)N(C5CCC(=O)NC5=O)C6=O)CC4)CC3)c2c1` (stereo partly drawn) [compound 31], the IC50 against IRAK4 [1] is not below 1 µM. Further, the DC50 on IRAK4 [2] was not below 1 µM.

As to `N#Cc1ccc2ncnc(N[C@H]3CC[C@H](N4CCN(CCOCCOCCOCCOc5ccc6c(c5)C(=O)N(C5CCC(=O)NC5=O)C6=O)CC4)CC3)c2c1` (stereo partly drawn) [compound 32], the half-maximal inhibitory concentration (IC50) against IRAK4 [1] was not below 1 µM. Moreover, the half-maximal degradation concentration (DC50) on IRAK4 [2] was not below 1 µM.

At IRAK4 [1], `N#Cc1ccc2ncnc(N[C@H]3CC[C@H](N4CCN(CCOCCOCCOCCOCCOc5ccc6c(c5)C(=O)N(C5CCC(=O)NC5=O)C6=O)CC4)CC3)c2c1` (stereo partly drawn) [compound 33] had a half-inhibitory concentration (IC50) not below 1 µM. Also, the DC50 on IRAK4 [2] is not below 1 µM.

On to `N#Cc1ccc2ncnc(N[C@H]3CC[C@H](N4CCN(S(=O)(=O)CCOCCOc5ccc6c(c5)C(=O)N(C5CCC(=O)NC5=O)C6=O)CC4)CC3)c2c1` (stereo partly drawn) [compound 34], for which, at IRAK4 [1], the half-maximal inhibitory concentration (IC50) is not below 1 µM. In addition, on IRAK4 [2], the DC50 is not below 1 µM.

Regarding `N#Cc1ccc2ncnc(N[C@H]3CC[C@@H](N4CCN(S(=O)(=O)CCOCCOc5ccc6c(c5)C(=O)N(C5CCC(=O)NC5=O)C6=O)CC4)CC3)c2c1` (stereo partly drawn) [compound 35], on IRAK4 [1], the IC50 was not below 1 µM. For the same molecule, the DC50 at IRAK4 [2] was not below 1 µM.

With `N#Cc1ccc2ncnc(N[C@H]3CC[C@H](N4CCN(S(=O)(=O)CCOCCOCCOc5ccc6c(c5)C(=O)N(C5CCC(=O)NC5=O)C6=O)CC4)CC3)c2c1` (stereo partly drawn) [compound 36], at IRAK4 [1], the 50% inhibitory concentration (IC50) is not below 1 µM. Further, the DC50 on IRAK4 [2] is not below 1 µM.

`N#Cc1ccc2ncnc(N[C@H]3CC[C@H](N4CCN(S(=O)(=O)CCOCCOCCOCCOCCOc5ccc6c(c5)C(=O)N(C5CCC(=O)NC5=O)C6=O)CC4)CC3)c2c1` (stereo partly drawn) [compound 40] showed an IC50 at IRAK4 [1] not below 1 µM. Further, on IRAK4 [2], the DC50 is not below 1 µM.

For `N#Cc1ccc2ncnc(N[C@H]3CC[C@@H](N4CCN(S(=O)(=O)CCOCCOCCOCCOCCOc5ccc6c(c5)C(=O)N(C5CCC(=O)NC5=O)C6=O)CC4)CC3)c2c1` (stereo partly drawn) [compound 41], the 50% inhibitory concentration (IC50) against IRAK4 [1] was not below 1 µM. Also, the DC50 on IRAK4 [2] was not below 1 µM.

Consider `O=C1CCC(N2C(=O)c3ccc(OCCOCCOC[C@H]4CC[C@@H](n5c(NC(=O)c6cccc(C(F)(F)F)c6)nc6cc(CN7CCCCC7)ccc65)CC4)cc3C2=O)C(=O)N1` (stereo partly drawn) [compound 44, N-(1-((1s,4s)-4-((2-(2-((2-(2,6-dioxopiperidin-3-yl)-1,3-dioxoisoindolin-5-yl)oxy)ethoxy)ethoxy)methyl)cyclohexyl)-5-(piperidin-1-ylmethyl)-1H-benzo[d]imidazol-2-yl)-3-(trifluoromethyl)benzamide], for which the IC50 at IRAK4 [1] was not below 1 µM. Besides, the DC50 on IRAK4 [2] was not below 1 µM.

In the case of `O=C1CCC(N2C(=O)c3ccc(OCCOCCOC[C@H]4CC[C@@H](n5c(NC(=O)c6cccc(C(F)(F)F)c6)nc6cc(F)ccc65)CC4)cc3C2=O)C(=O)N1` (stereo partly drawn) [compound 46, N-(1-((1s,4s)-4-((2-(2-((2-(2,6-dioxopiperidin-3-yl)-1,3-dioxoisoindolin-5-yl)oxy)ethoxy)ethoxy)methyl)cyclohexyl)-5-fluoro-1H-benzo[d]imidazol-2-yl)-3-(trifluoromethyl)benzamide], on IRAK4 [1], the half-maximal inhibitory concentration (IC50) is not below 1 µM. Further, at IRAK4 [2], the DC50 was not below 1 µM.

As to `O=C1CCC(N2C(=O)c3ccc(OCCOCCOCCOC[C@H]4CC[C@@H](n5c(NC(=O)c6cccc(C(F)(F)F)c6)nc6cc(F)ccc65)CC4)cc3C2=O)C(=O)N1` (stereo partly drawn) [compound 47, N-(1-((1s,4s)-4-((2-(2-(2-((2-(2,6-dioxopiperidin-3-yl)-1,3-dioxoisoindolin-5-yl)oxy)ethoxy)ethoxy)ethoxy)methyl)cyclohexyl)-5-fluoro-1H-benzo[d]imidazol-2-yl)-3-(trifluoromethyl)benzamide], the IC50 against IRAK4 [1] is not below 1 µM. Further, the DC50 on IRAK4 [2] was not below 1 µM.

Regarding `O=C1CCC(N2C(=O)c3ccc(OCCOCCOCCOCCOC[C@H]4CC[C@@H](n5c(NC(=O)c6cccc(C(F)(F)F)c6)nc6cc(F)ccc65)CC4)cc3C2=O)C(=O)N1` (stereo partly drawn) [compound 48, N-(1-((1s,4s)-4-(13-((2-(2,6-dioxopiperidin-3-yl)-1,3-dioxoisoindolin-5-yl)oxy)-2,5,8,11-tetraoxatridecyl)cyclohexyl)-5-fluoro-1H-benzo[d]imidazol-2-yl)-3-(trifluoromethyl)benzamide], on IRAK4 [1], the half-maximal inhibitory concentration (IC50) is not below 1 µM. Also, the DC50 on IRAK4 [2] was not below 1 µM.

`CN(CCOCCOCCOc1ccc2c(c1)C(=O)N(C1CCC(=O)NC1=O)C2=O)c1cccc(-n2c(NC(=O)c3cccc(C(F)(F)F)c3)nc3cc(F)ccc32)c1` (stereo not drawn) [compound 49, N-(1-(3-((2-(2-(2-((2-(2,6-dioxopiperidin-3-yl)-1,3-dioxoisoindolin-5-yl)oxy)ethoxy)ethoxy)ethyl) (methyl)amino)phenyl)-5-fluoro-1H-benzo[d]imidazol-2-yl)-3-(trifluoromethyl)benzamide] came in with an IC50 on IRAK4 [1] not below 1 µM. The DC50 on IRAK4 [2] is not below 1 µM.

Take `CN(CCOc1ccc2c(c1)C(=O)N(C1CCC(=O)NC1=O)C2=O)c1cccc(-n2c(NC(=O)c3cccc(C(F)(F)F)c3)nc3cc(F)ccc32)c1` (stereo not drawn) [compound 50, N-(1-(3-((2-((2-(2,6-dioxopiperidin-3-yl)-1,3-dioxoisoindolin-5-yl)oxy)ethyl)(methyl)amino)phenyl)-5-fluoro-1H-benzo[d]imidazol-2-yl)-3-(trifluoromethyl)benzamide]: the IC50 against IRAK4 [1] is not below 1 µM. For the same molecule, at IRAK4 [2], the DC50 was not below 1 µM.

At IRAK4 [1], `CN(CCOCCOc1ccc2c(c1)C(=O)N(C1CCC(=O)NC1=O)C2=O)c1cccc(-n2c(NC(=O)c3cccc(C(F)(F)F)c3)nc3cc(F)ccc32)c1` (stereo not drawn) [compound 51, N-(1-(3-((2-(2-((2-(2,6-dioxopiperidin-3-yl)-1,3-dioxoisoindolin-5-yl)oxy)ethoxy)ethyl)(methyl)amino)phenyl)-5-fluoro-1H-benzo[d]imidazol-2-yl)-3-(trifluoromethyl)benzamide] registered a half-inhibitory concentration (IC50) not below 1 µM. Moreover, the DC50 on IRAK4 [2] is not below 1 µM.
